Experimental data from paper PMC8185074, “Anchor extension: a structure-guided approach to design cyclic peptides targeting enzyme active sites” (Nature Communications, 2021).
pIC50: −log10 of the molar value. Like-named read-outs stand apart in the source and are kept apart here. Peptide text beside a SMILES is read from it.

Key:
Assay type in all cases: biochemical
HDAC8 = molecular target: T1, HDAC8 (Homo sapiens, UniProt Q9BY41); experiment: HDAC8 inhibition, full IC50 measurement (Reaction Biology; fluorogenic p53 peptide RHKK(Ac)AMC); settings: t1/t2 replicates
T1 construct: purchased Reaction Biology Corporation (assay run by the CRO)
T1 sequence (Q9BY41 1-377): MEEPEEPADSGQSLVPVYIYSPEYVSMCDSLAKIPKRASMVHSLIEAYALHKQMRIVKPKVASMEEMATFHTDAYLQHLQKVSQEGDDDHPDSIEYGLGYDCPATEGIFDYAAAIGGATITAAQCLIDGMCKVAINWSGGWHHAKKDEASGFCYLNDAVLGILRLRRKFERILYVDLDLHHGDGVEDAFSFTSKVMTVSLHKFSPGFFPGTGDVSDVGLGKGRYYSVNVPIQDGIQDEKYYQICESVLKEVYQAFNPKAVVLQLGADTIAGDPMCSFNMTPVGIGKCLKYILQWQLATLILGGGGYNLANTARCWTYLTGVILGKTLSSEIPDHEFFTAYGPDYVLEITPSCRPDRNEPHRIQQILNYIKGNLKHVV
Procedure, shortened: (§1)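 Reaction: enzyme plus acoustically dispensed peptide inhibitor, 50 μM RHKK(Ac)AMC substrate, pH 8.0 Tris buffer with BSA and 1% DMSO, 1 h, 30 °C. Duplicates averaged.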

HDAC2 [1] = molecular target: T2, HDAC2 (Homo sapiens, UniProt Q92769); experiment: Initial HDAC2 IC50 estimate (BPS Biosciences HDAC fluorogenic assay kit)
T2 construct: purchased Reaction Biology Corporation (assay run by the CRO)
Procedure, shortened: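 Inhibition measured by kit-based fluorogenic HDAC activity assays, with each point in duplicate or triplicate. Values come from a full 1 µM–100 pM series (1:10 steps) or are range estimates from just 20 nM and 200 nM.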

HDAC2 [2] = molecular target: T2, HDAC2; experiment: HDAC2 inhibition, full IC50 measurement (Reaction Biology; fluorogenic p53 peptide RHKK(Ac)AMC)
Procedure, shortened: as §1

[3] = Supp. Table 4, rough estimates, for promising hits full measurements, read-out: HDAC2 activity (initial values for HDAC2 IC50)
[4] = Supplementary Dataset 2, read-out: HDAC2 activity (initial activity)

T2 sequence (Q92769 whole entry): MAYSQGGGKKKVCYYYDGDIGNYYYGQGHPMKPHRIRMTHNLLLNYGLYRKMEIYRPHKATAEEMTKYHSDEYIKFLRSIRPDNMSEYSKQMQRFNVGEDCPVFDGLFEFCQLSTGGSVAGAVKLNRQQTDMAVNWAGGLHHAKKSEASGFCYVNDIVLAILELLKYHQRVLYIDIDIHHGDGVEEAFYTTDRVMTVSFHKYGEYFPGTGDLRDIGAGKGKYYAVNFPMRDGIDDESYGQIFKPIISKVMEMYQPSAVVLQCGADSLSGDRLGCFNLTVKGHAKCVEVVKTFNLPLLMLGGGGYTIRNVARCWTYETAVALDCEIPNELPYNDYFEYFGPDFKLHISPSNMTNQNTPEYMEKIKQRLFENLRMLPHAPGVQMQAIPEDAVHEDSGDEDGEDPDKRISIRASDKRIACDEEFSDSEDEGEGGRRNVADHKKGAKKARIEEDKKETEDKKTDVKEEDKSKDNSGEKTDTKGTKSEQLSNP

Structure (SMILES): NCCCC[C@H]1NC(=O)[C@H](CCC(N)=O)NC(=O)[C@H](CCC(=O)O)NC(=O)[C@@H]2CCCN2C(=O)[C@H](CC(N)=O)NC(=O)[C@H](CCCCCS)NC(=O)CNC(=O)[C@H](Cc2c[nH]c3ccccc23)NC1=O [des1.1.1, SHA-Asn-Pro-Glu-Gln-dLys-Trp-Gly] (HELM PEPTIDE1{E.Q.[dK].W.G.[O=C([C@H](CCCCCS)N[*:1])[*:2]].N.P}$PEPTIDE1,PEPTIDE1,1:R1-8:R2$$$V2.0)
- HDAC8 activity raw data (signal) (HDAC8; peptide conc. 1.00E-05 M, listed as des1.1.1_t1): 258617
- HDAC8 activity raw data (signal) (HDAC8; peptide conc. 1.00E-05 M, listed as des1.1.1_t2): 8333740
- HDAC8 activity raw data (signal) (HDAC8; peptide conc. 1.11E-06 M, listed as des1.1.1_t1): 532680
- HDAC8 activity raw data (signal) (HDAC8; peptide conc. 1.11E-06 M, listed as des1.1.1_t2): 26455057
- HDAC8 activity raw data (signal) (HDAC8; peptide conc. 1.23E-07 M, listed as des1.1.1_t1): 587120
- HDAC8 activity raw data (signal) (HDAC8; peptide conc. 1.23E-07 M, listed as des1.1.1_t2): 38904462
- HDAC8 activity raw data (signal) (HDAC8; peptide conc. 1.37E-08 M, listed as des1.1.1_t1): 802422
- HDAC8 activity raw data (signal) (HDAC8; peptide conc. 1.37E-08 M, listed as des1.1.1_t2): 44804049
- HDAC8 activity raw data (signal) (HDAC8; peptide conc. 1.52E-09 M, listed as des1.1.1_t1): 956971
- HDAC8 activity raw data (signal) (HDAC8; peptide conc. 1.52E-09 M, listed as des1.1.1_t2): 49754188
- HDAC8 activity raw data (signal) (HDAC8; peptide conc. 3.33E-06 M, listed as des1.1.1_t1): 289575
- HDAC8 activity raw data (signal) (HDAC8; peptide conc. 3.33E-06 M, listed as des1.1.1_t2): 18105294
- HDAC8 activity raw data (signal) (HDAC8; peptide conc. 3.70E-07 M, listed as des1.1.1_t1): 559845
- HDAC8 activity raw data (signal) (HDAC8; peptide conc. 3.70E-07 M, listed as des1.1.1_t2): 34440414
- HDAC8 activity raw data (signal) (HDAC8; peptide conc. 4.12E-08 M, listed as des1.1.1_t1): 916202
- HDAC8 activity raw data (signal) (HDAC8; peptide conc. 4.12E-08 M, listed as des1.1.1_t2): 43441318
- HDAC8 activity raw data (signal) (HDAC8; peptide conc. 4.57E-09 M, listed as des1.1.1_t1): 928568
- HDAC8 activity raw data (signal) (HDAC8; peptide conc. 4.57E-09 M, listed as des1.1.1_t2): 47580068
- HDAC8 activity raw data (signal) (HDAC8; peptide conc. 5.08E-10 M, listed as des1.1.1_t1): 688133
- HDAC8 activity raw data (signal) (HDAC8; peptide conc. 5.08E-10 M, listed as des1.1.1_t2): 50930211
- pIC50 (HDAC2 [1]; [3]): 6.72
- pIC50 (HDAC2 [1]; [4]): 6.57
- 2-Selectivity: fold potency for HDAC2 over HDAC6 (HDAC2 [2]): 0.17 fold
- HDAC2 activity raw data (signal) (HDAC2 [2]; Conc. 1.00E-05 M, t1): 51389
- HDAC2 activity raw data (signal) (HDAC2 [2]; Conc. 1.11E-06 M, t1): 176321
- HDAC2 activity raw data (signal) (HDAC2 [2]; Conc. 1.23E-07 M, t1): 517115
- HDAC2 activity raw data (signal) (HDAC2 [2]; Conc. 1.23E-07 M, t2): 516299
- HDAC2 activity raw data (signal) (HDAC2 [2]; Conc. 1.37E-08 M, t1): 670648
- HDAC2 activity raw data (signal) (HDAC2 [2]; Conc. 1.37E-08 M, t2): 890041
- HDAC2 activity raw data (signal) (HDAC2 [2]; Conc. 1.52E-09 M, t1): 768698
- HDAC2 activity raw data (signal) (HDAC2 [2]; Conc. 1.52E-09 M, t2): 986775
- HDAC2 activity raw data (signal) (HDAC2 [2]; Conc. 3.33E-06 M, t1): 91275
- HDAC2 activity raw data (signal) (HDAC2 [2]; Conc. 3.70E-07 M, t1): 346891
- HDAC2 activity raw data (signal) (HDAC2 [2]; Conc. 4.12E-08 M, t1): 680634
- HDAC2 activity raw data (signal) (HDAC2 [2]; Conc. 4.12E-08 M, t2): 655155
- HDAC2 activity raw data (signal) (HDAC2 [2]; Conc. 4.57E-09 M, t1): 833526
- HDAC2 activity raw data (signal) (HDAC2 [2]; Conc. 4.57E-09 M, t2): 959526
- HDAC2 activity raw data (signal) (HDAC2 [2]; Conc. 5.08E-10 M, t1): 761364
- HDAC2 activity raw data (signal) (HDAC2 [2]; Conc. 5.08E-10 M, t2): 1054303

Structure (SMILES): N=C(N)NCCC[C@@H]1NC(=O)[C@@H](CCCNC(=N)N)NC(=O)[C@H]2CCCN2C(=O)[C@@H](Cc2c[nH]cn2)NC(=O)[C@H](Cc2ccc(O)cc2)NC(=O)[C@H](CCCCCS)NC(=O)[C@H](CCc2ccccc2)NC(=O)[C@@H](CO)NC(=O)[C@H](CC(=O)O)NC1=O [des3.3.1, SHA-Tyr-dHis-dPro-dArg-Arg-Asp-dSer-C27] (HELM PEPTIDE1{[O=C([C@H](CCCCCS)N[*:1])[*:2]].Y.[dH].[dP].[dR].R.D.[dS].[O=C([C@H](CCc1ccccc1)N[*:1])[*:2]]}$PEPTIDE1,PEPTIDE1,1:R1-9:R2$$$V2.0)
- HDAC8 activity raw data (signal) (HDAC8; peptide conc. 1.00E-05 M, listed as des3.3.1_t1): 1764805
- HDAC8 activity raw data (signal) (HDAC8; peptide conc. 1.00E-05 M, listed as des3.3.1_t2): 2650341
- HDAC8 activity raw data (signal) (HDAC8; peptide conc. 1.11E-06 M, listed as des3.3.1_t1): 12709203
- HDAC8 activity raw data (signal) (HDAC8; peptide conc. 1.11E-06 M, listed as des3.3.1_t2): 10450749
- HDAC8 activity raw data (signal) (HDAC8; peptide conc. 1.23E-07 M, listed as des3.3.1_t1): 26946160
- HDAC8 activity raw data (signal) (HDAC8; peptide conc. 1.23E-07 M, listed as des3.3.1_t2): 26450742
- HDAC8 activity raw data (signal) (HDAC8; peptide conc. 1.37E-08 M, listed as des3.3.1_t1): 39769433
- HDAC8 activity raw data (signal) (HDAC8; peptide conc. 1.37E-08 M, listed as des3.3.1_t2): 37609928
- HDAC8 activity raw data (signal) (HDAC8; peptide conc. 1.52E-09 M, listed as des3.3.1_t1): 46887256
- HDAC8 activity raw data (signal) (HDAC8; peptide conc. 1.52E-09 M, listed as des3.3.1_t2): 44277806
- HDAC8 activity raw data (signal) (HDAC8; peptide conc. 3.33E-06 M, listed as des3.3.1_t1): 5825269
- HDAC8 activity raw data (signal) (HDAC8; peptide conc. 3.33E-06 M, listed as des3.3.1_t2): 6935130
- HDAC8 activity raw data (signal) (HDAC8; peptide conc. 3.70E-07 M, listed as des3.3.1_t1): 21428540
- HDAC8 activity raw data (signal) (HDAC8; peptide conc. 3.70E-07 M, listed as des3.3.1_t2): 18809141
- HDAC8 activity raw data (signal) (HDAC8; peptide conc. 4.12E-08 M, listed as des3.3.1_t1): 34070523
- HDAC8 activity raw data (signal) (HDAC8; peptide conc. 4.12E-08 M, listed as des3.3.1_t2): 34526681
- HDAC8 activity raw data (signal) (HDAC8; peptide conc. 4.57E-09 M, listed as des3.3.1_t1): 42350569
- HDAC8 activity raw data (signal) (HDAC8; peptide conc. 4.57E-09 M, listed as des3.3.1_t2): 43646566
- HDAC8 activity raw data (signal) (HDAC8; peptide conc. 5.08E-10 M, listed as des3.3.1_t1): 45458566
- HDAC8 activity raw data (signal) (HDAC8; peptide conc. 5.08E-10 M, listed as des3.3.1_t2): 46659013
- pIC50 (HDAC2 [1]; [3]): 7.60
- pIC50 (HDAC2 [1]; [4]): 7.70
- HDAC2 activity raw data (signal) (HDAC2 [2]; Conc. 1.00E-06 M, t1): 33408
- HDAC2 activity raw data (signal) (HDAC2 [2]; Conc. 1.00E-06 M, t2): 20115
- HDAC2 activity raw data (signal) (HDAC2 [2]; Conc. 1.11E-07 M, t1): 236730
- HDAC2 activity raw data (signal) (HDAC2 [2]; Conc. 1.11E-07 M, t2): 242180
- HDAC2 activity raw data (signal) (HDAC2 [2]; Conc. 1.23E-08 M, t1): 774356
- HDAC2 activity raw data (signal) (HDAC2 [2]; Conc. 1.23E-08 M, t2): 764329
- HDAC2 activity raw data (signal) (HDAC2 [2]; Conc. 1.37E-09 M, t1): 1033572
- HDAC2 activity raw data (signal) (HDAC2 [2]; Conc. 1.37E-09 M, t2): 1142758
- HDAC2 activity raw data (signal) (HDAC2 [2]; Conc. 1.52E-10 M, t1): 1093848
- HDAC2 activity raw data (signal) (HDAC2 [2]; Conc. 1.52E-10 M, t2): 1228270
- HDAC2 activity raw data (signal) (HDAC2 [2]; Conc. 3.33E-07 M, t1): 99662
- HDAC2 activity raw data (signal) (HDAC2 [2]; Conc. 3.33E-07 M, t2): 91701
- HDAC2 activity raw data (signal) (HDAC2 [2]; Conc. 3.70E-08 M, t1): 494195
- HDAC2 activity raw data (signal) (HDAC2 [2]; Conc. 3.70E-08 M, t2): 473509
- HDAC2 activity raw data (signal) (HDAC2 [2]; Conc. 4.12E-09 M, t1): 948142
- HDAC2 activity raw data (signal) (HDAC2 [2]; Conc. 4.12E-09 M, t2): 1005576
- HDAC2 activity raw data (signal) (HDAC2 [2]; Conc. 4.57E-10 M, t1): 1113632
- HDAC2 activity raw data (signal) (HDAC2 [2]; Conc. 4.57E-10 M, t2): 1221209
- HDAC2 activity raw data (signal) (HDAC2 [2]; Conc. 5.08E-11 M, t1): 1186904
- HDAC2 activity raw data (signal) (HDAC2 [2]; Conc. 5.08E-11 M, t2): 1232500
